# Test results published in US6541450B1, “Parathyroid hormone analogues for the treatment of osteoporosis” (National Research Council of Canada, priority 1994, dated 2003).
# Where a SMILES comes first, the peptide text is derived from it. Bridges are numbered along the chain shown (N, C = ends). Where no end group is shown, it is not given here. [ ]: non-standard residue; d: D form. Nle = CCCC[C@H](N)C(=O)O; Orn = NCCC[C@H](N)C(=O)O
# T1: adenylyl cyclase, ROS 17/2 cells (Rattus norvegicus, UniProt P25961)
# T1 sequence (P25961 27-591): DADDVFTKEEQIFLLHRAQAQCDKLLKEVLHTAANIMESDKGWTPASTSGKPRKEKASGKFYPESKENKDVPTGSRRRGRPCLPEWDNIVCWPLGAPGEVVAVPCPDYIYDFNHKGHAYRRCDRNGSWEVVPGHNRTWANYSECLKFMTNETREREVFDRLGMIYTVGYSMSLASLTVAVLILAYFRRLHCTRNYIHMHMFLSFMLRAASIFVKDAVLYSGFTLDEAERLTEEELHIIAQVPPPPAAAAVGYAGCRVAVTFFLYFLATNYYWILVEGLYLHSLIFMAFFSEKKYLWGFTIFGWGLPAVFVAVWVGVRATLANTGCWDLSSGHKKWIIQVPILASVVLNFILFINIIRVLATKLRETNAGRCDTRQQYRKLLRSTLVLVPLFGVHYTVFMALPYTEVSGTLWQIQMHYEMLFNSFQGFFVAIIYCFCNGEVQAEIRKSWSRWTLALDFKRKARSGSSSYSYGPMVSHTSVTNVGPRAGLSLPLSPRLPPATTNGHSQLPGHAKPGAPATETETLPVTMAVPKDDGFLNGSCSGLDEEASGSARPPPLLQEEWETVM
# B1: [Leu^27]cyclo(Glu^22-Lys^26)-hPTH-(1-34)-OH (peptide)
# peptide: SVSEIQLMHNLGKHLNSMERVEWLRKLLQDVHNF-OH
# modifications: lactam 22-26; N-terminus assumed
# SMILES: CC[C@H](C)[C@H](NC(=O)[C@H](CCC(=O)O)NC(=O)[C@H](CO)NC(=O)[C@@H](NC(=O)[C@@H](N)CO)C(C)C)C(=O)N[C@@H](CCC(N)=O)C(=O)N[C@@H](CC(C)C)C(=O)N[C@@H](CCSC)C(=O)N[C@@H](Cc1c[nH]cn1)C(=O)N[C@@H](CC(N)=O)C(=O)N[C@@H](CC(C)C)C(=O)NCC(=O)N[C@@H](CCCCN)C(=O)N[C@@H](Cc1c[nH]cn1)C(=O)N[C@@H](CC(C)C)C(=O)N[C@@H](CC(N)=O)C(=O)N[C@@H](CO)C(=O)N[C@@H](CCSC)C(=O)N[C@@H](CCC(=O)O)C(=O)N[C@@H](CCCNC(=N)N)C(=O)N[C@H](C(=O)N[C@H]1CCC(=O)NCCCC[C@@H](C(=O)N[C@@H](CC(C)C)C(=O)N[C@@H](CC(C)C)C(=O)N[C@@H](CCC(N)=O)C(=O)N[C@@H](CC(=O)O)C(=O)N[C@H](C(=O)N[C@@H](Cc2c[nH]cn2)C(=O)N[C@@H](CC(N)=O)C(=O)N[C@@H](Cc2ccccc2)C(=O)O)C(C)C)NC(=O)[C@H](CCCNC(=N)N)NC(=O)[C@H](CC(C)C)NC(=O)[C@H](Cc2c[nH]c3ccccc23)NC1=O)C(C)C
# B2: [Cys^26, Cys^30, Leu^27]cyclo(Cys^26-Cys^30)-hPTH-(1-31)-NH2 (peptide)
# peptide: SVSEIQLMHNLGKHLNSMERVEWLRCLLQCV-NH2
# modifications: disulfide 26-30; N-terminus assumed
# SMILES: CC[C@H](C)[C@H](NC(=O)[C@H](CCC(=O)O)NC(=O)[C@H](CO)NC(=O)[C@@H](NC(=O)[C@@H](N)CO)C(C)C)C(=O)N[C@@H](CCC(N)=O)C(=O)N[C@@H](CC(C)C)C(=O)N[C@@H](CCSC)C(=O)N[C@@H](Cc1c[nH]cn1)C(=O)N[C@@H](CC(N)=O)C(=O)N[C@@H](CC(C)C)C(=O)NCC(=O)N[C@@H](CCCCN)C(=O)N[C@@H](Cc1c[nH]cn1)C(=O)N[C@@H](CC(C)C)C(=O)N[C@@H](CC(N)=O)C(=O)N[C@@H](CO)C(=O)N[C@@H](CCSC)C(=O)N[C@@H](CCC(=O)O)C(=O)N[C@@H](CCCNC(=N)N)C(=O)N[C@H](C(=O)N[C@@H](CCC(=O)O)C(=O)N[C@@H](Cc1c[nH]c2ccccc12)C(=O)N[C@@H](CC(C)C)C(=O)N[C@@H](CCCNC(=N)N)C(=O)N[C@H]1CSSC[C@@H](C(=O)N[C@H](C(N)=O)C(C)C)NC(=O)[C@H](CCC(N)=O)NC(=O)[C@H](CC(C)C)NC(=O)[C@H](CC(C)C)NC1=O)C(C)C
# B3: [Leu^27]cyclo(Glu^22-Lys^26)-hPTH-(1-30)-NH2 (peptide)
# peptide: SVSEIQLMHNLGKHLNSMERVEWLRKLLQD-NH2
# modifications: lactam 22-26; N-terminus assumed
# SMILES: CC[C@H](C)[C@H](NC(=O)[C@H](CCC(=O)O)NC(=O)[C@H](CO)NC(=O)[C@@H](NC(=O)[C@@H](N)CO)C(C)C)C(=O)N[C@@H](CCC(N)=O)C(=O)N[C@@H](CC(C)C)C(=O)N[C@@H](CCSC)C(=O)N[C@@H](Cc1c[nH]cn1)C(=O)N[C@@H](CC(N)=O)C(=O)N[C@@H](CC(C)C)C(=O)NCC(=O)N[C@@H](CCCCN)C(=O)N[C@@H](Cc1c[nH]cn1)C(=O)N[C@@H](CC(C)C)C(=O)N[C@@H](CC(N)=O)C(=O)N[C@@H](CO)C(=O)N[C@@H](CCSC)C(=O)N[C@@H](CCC(=O)O)C(=O)N[C@@H](CCCNC(=N)N)C(=O)N[C@H](C(=O)N[C@H]1CCC(=O)NCCCC[C@@H](C(=O)N[C@@H](CC(C)C)C(=O)N[C@@H](CC(C)C)C(=O)N[C@@H](CCC(N)=O)C(=O)N[C@@H](CC(=O)O)C(N)=O)NC(=O)[C@H](CCCNC(=N)N)NC(=O)[C@H](CC(C)C)NC(=O)[C@H](Cc2c[nH]c3ccccc23)NC1=O)C(C)C
# Target: T1, adenylyl cyclase, ROS 17/2 cells
# Test: Adenylyl cyclase stimulation, [3H]-cyclic AMP production in ROS 17/2 cells
# Type: cell-based
# Conditions: ROS 17/2 cells; concentration for half-maximal increase in AC activity; read-out: Adenylyl Cyclase (EC50)
row,Molecule,EC50
1,"CC[C@H](C)[C@H](NC(=O)[C@H](CCC(=O)O)NC(=O)[C@H](CO)NC(=O)[C@@H](NC(=O)[C@@H](N)CO)C(C)C)C(=O)N[C@@H](CCC(N)=O)C(=O)N[C@@H](CC(C)C)C(=O)N[C@@H](CCSC)C(=O)N[C@@H](Cc1c[nH]cn1)C(=O)N[C@@H](CC(N)=O)C(=O)N[C@@H](CC(C)C)C(=O)NCC(=O)N[C@@H](CCCCN)C(=O)N[C@@H](Cc1c[nH]cn1)C(=O)N[C@@H](CC(C)C)C(=O)N[C@@H](CC(N)=O)C(=O)N[C@@H](CO)C(=O)N[C@@H](CCSC)C(=O)N[C@@H](CCC(=O)O)C(=O)N[C@@H](CCCNC(=N)N)C(=O)N[C@H](C(=O)N[C@H]1CSSC[C@@H](C(=O)N[C@@H](CC(C)C)C(=O)N[C@@H](CC(C)C)C(=O)N[C@@H](CCC(N)=O)C(=O)N[C@@H](CC(=O)O)C(=O)N[C@H](C(N)=O)C(C)C)NC(=O)[C@H](CCCNC(=N)N)NC(=O)[C@H](CC(C)C)NC(=O)[C@H](Cc2c[nH]c3ccccc23)NC1=O)C(C)C [[Cys^22, Cys^26, Leu^27]cyclo(Cys^22—Cys^26)—hPTH—(1-31)-NH2] (H-SVSEIQLMHNLGKHLNSMERVCWLRCLLQDV-NH2; disulfide 22-26)",16 nM
2,"CCCC[C@H](NC(=O)[C@H](CO)NC(=O)[C@H](CC(N)=O)NC(=O)[C@H](CC(C)C)NC(=O)[C@H](Cc1c[nH]cn1)NC(=O)[C@H](CCCCN)NC(=O)CNC(=O)[C@H](CC(C)C)NC(=O)[C@H](CC(N)=O)NC(=O)[C@H](Cc1c[nH]cn1)NC(=O)[C@H](CCCC)NC(=O)[C@H](CC(C)C)NC(=O)[C@H](CCC(N)=O)NC(=O)[C@@H](NC(=O)[C@H](CCC(=O)O)NC(=O)[C@H](CO)NC(=O)[C@@H](NC(=O)[C@@H](N)CO)C(C)C)[C@@H](C)CC)C(=O)N[C@@H](CCC(=O)O)C(=O)N[C@@H](CCCNC(=N)N)C(=O)N[C@H](C(=O)N[C@H]1CCC(=O)NCCCC[C@@H](C(=O)N[C@@H](CC(C)C)C(=O)N[C@@H](CC(C)C)C(=O)N[C@@H](CCC(N)=O)C(=O)N[C@@H](CC(=O)O)C(=O)N[C@H](C(N)=O)C(C)C)NC(=O)[C@H](CCCNC(=N)N)NC(=O)[C@H](CC(C)C)NC(=O)[C@H](Cc2c[nH]c3ccccc23)NC1=O)C(C)C [[Nle^8.18, Leu^27]cyclo(Glu^22—Lys^26)—hPTH—(1-31)-NH2] (H-SVSEIQL[Nle]HNLGKHLNS[Nle]ERVEWLRKLLQDV-NH2; lactam 22-26; N-terminus assumed)",6 nM
3,CC[C@H](C)[C@H](NC(=O)[C@H](CCC(=O)O)NC(=O)[C@H](CO)NC(=O)[C@@H](NC(=O)[C@@H](N)CO)C(C)C)C(=O)N[C@@H](CCC(N)=O)C(=O)N[C@@H](CC(C)C)C(=O)N[C@@H](CCSC)C(=O)N[C@@H](Cc1c[nH]cn1)C(=O)N[C@@H](CC(N)=O)C(=O)N[C@@H](CC(C)C)C(=O)NCC(=O)N[C@@H](CCCCN)C(=O)N[C@@H](Cc1c[nH]cn1)C(=O)N[C@@H](CC(C)C)C(=O)N[C@@H](CC(N)=O)C(=O)N[C@@H](CO)C(=O)N[C@@H](CCSC)C(=O)N[C@@H](CCC(=O)O)C(=O)N[C@@H](CCCNC(=N)N)C(=O)N[C@H](C(=O)N[C@H]1CC(=O)NCCC[C@@H](C(=O)N[C@@H](CC(C)C)C(=O)N[C@@H](CC(C)C)C(=O)N[C@@H](CCC(N)=O)C(=O)N[C@@H](CC(=O)O)C(=O)N[C@H](C(N)=O)C(C)C)NC(=O)[C@H](CCCNC(=N)N)NC(=O)[C@H](CC(C)C)NC(=O)[C@H](Cc2c[nH]c3ccccc23)NC1=O)C(C)C [[Leu^27]cyclo(Asp^22—Orn^26)—hPTH—(1-31)-NH2] (H-SVSEIQLMHNLGKHLNSMERVDWLR[Orn]LLQDV-NH2; lactam 22-26; N-terminus assumed),> 200 nM
4,CC[C@H](C)[C@H](NC(=O)[C@H](CCC(=O)O)NC(=O)[C@H](CO)NC(=O)[C@@H](NC(=O)[C@@H](N)CO)C(C)C)C(=O)N[C@@H](CCC(N)=O)C(=O)N[C@@H](CC(C)C)C(=O)N[C@@H](CCSC)C(=O)N[C@@H](Cc1c[nH]cn1)C(=O)N[C@@H](CC(N)=O)C(=O)N[C@@H](CC(C)C)C(=O)NCC(=O)N[C@@H](CCCCN)C(=O)N[C@@H](Cc1c[nH]cn1)C(=O)N[C@@H](CC(C)C)C(=O)N[C@@H](CC(N)=O)C(=O)N[C@@H](CO)C(=O)N[C@@H](CCSC)C(=O)N[C@@H](CCC(=O)O)C(=O)N[C@@H](CCCNC(=N)N)C(=O)N[C@H](C(=O)N[C@H]1CCC(=O)NCCCC[C@@H](C(=O)N[C@@H](CC(C)C)C(=O)N[C@@H](CC(C)C)C(=O)N[C@@H](CCC(N)=O)C(=O)N[C@@H](CC(=O)O)C(=O)N[C@H](C(=O)N[C@@H](Cc2c[nH]cn2)C(=O)N[C@@H](CC(N)=O)C(=O)N[C@@H](Cc2ccccc2)C(=O)O)C(C)C)NC(=O)[C@H](CCCNC(=N)N)NC(=O)[C@H](CC(C)C)NC(=O)[C@H](Cc2c[nH]c3ccccc23)NC1=O)C(C)C [[Leu^27]cyclo(Glu^22—Lys^26)—hPTH—(1-34)-OH] (H-SVSEIQLMHNLGKHLNSMERVEWLRKLLQDVHNF-OH; lactam 22-26; N-terminus assumed),6 nM

# Target: PTH receptor (rat (ROS 17/2 rat osteosarcoma cell …, UniProt P25961))
# Test: cell-based or functional assay
# Conditions: not given
row,Molecule,Adenylyl Cyclase (EC50)
1,SVSEIQLMHNLGKHLNSMERVEWLRKLLQDV-OH (lactam 22-26) [[Leu^27]cyclo(Glu^22-Lys^26)-hPTH-(1-31)-OH],7 nM
2,B1,6 nM
3,B2,24 nM
4,B3,20 nM
